Results as given in ChEMBL document CHEMBL1136523, “A novel estrogen receptor ligand template” (Bioorg Med Chem Lett, 2003).

Assays:
Estrogen receptor beta = Estrogen receptor beta (Homo sapiens, UniProt Q92731)
Description: In vitro binding affinity for estrogen receptor beta

Estrogen receptor [1] = target: T1, Estrogen receptor (Homo sapiens, UniProt P03372); assay: In vitro binding affinity for estrogen receptor alpha
T1 sequence (P03372 whole entry): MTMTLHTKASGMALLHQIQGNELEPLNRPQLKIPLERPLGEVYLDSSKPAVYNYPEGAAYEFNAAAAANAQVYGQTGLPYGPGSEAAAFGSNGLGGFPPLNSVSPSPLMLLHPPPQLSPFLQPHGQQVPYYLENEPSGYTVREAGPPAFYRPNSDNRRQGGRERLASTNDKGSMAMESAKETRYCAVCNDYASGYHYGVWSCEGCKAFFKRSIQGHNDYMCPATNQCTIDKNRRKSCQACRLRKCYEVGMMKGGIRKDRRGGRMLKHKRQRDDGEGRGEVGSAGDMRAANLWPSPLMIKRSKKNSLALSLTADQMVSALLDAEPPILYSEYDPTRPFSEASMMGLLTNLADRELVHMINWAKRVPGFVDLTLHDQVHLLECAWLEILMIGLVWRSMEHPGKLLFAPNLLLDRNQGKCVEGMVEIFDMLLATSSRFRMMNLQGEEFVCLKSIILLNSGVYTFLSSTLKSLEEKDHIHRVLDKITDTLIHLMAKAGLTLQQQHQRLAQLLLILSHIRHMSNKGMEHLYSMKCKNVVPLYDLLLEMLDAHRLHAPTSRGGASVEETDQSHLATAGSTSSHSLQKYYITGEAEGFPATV

Estrogen receptor [2] = target: Estrogen receptor (Homo sapiens, UniProt Q92731+P03372); assay: Percent agonistic activity for estrogen-induced pS2 expression in MCF-7 cells; type: functional, cell-based; details: mcf7

Sequence of Estrogen receptor beta (Q92731 whole entry): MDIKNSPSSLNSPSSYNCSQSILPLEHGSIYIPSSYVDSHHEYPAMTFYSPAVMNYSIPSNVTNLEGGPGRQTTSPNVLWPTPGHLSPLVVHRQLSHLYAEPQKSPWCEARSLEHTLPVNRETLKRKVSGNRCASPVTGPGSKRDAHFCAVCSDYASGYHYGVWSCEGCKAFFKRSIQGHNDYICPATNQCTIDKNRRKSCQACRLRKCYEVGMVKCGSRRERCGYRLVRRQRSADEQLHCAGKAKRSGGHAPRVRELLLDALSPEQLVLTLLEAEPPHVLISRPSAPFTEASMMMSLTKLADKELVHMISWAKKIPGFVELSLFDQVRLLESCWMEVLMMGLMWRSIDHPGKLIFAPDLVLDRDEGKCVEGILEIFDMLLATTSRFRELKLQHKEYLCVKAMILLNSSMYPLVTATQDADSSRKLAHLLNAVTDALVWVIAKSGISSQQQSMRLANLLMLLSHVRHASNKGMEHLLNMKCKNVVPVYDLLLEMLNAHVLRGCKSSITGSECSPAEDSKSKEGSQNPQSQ

IC50 (Estrogen receptor beta): 0.075 µM
IC50 (Estrogen receptor [1]): 0.55 µM
EC50 (Estrogen receptor [2]): < 0.01 µM
SMILES: OC[C@@]12CC=C[C@@H](C1)[C@H](c1ccc(O)cc1)CC2
